Values after ≈ are worked out from the molar mass of the structure shown. Read-outs that look alike come from different tables or passages of the source.
Legend:
Salmonella typhi 901 = test: Antibacterial test, agar plate dilution method; type: cell-based; details: Salmonella enterica, TYPHI, 18 h
[1] = system: Salmonella paratyphi 1015; test: Antibacterial test, agar plate dilution method; type: cell-based; details: Salmonella enterica, PARATYPHI, 18 h
[2] = system: Enterobacter cloacae GN 7467; test: Antibacterial activity against clinically isolated β-lactamase producing strains; type: cell-based; details: Enterobacter cloacae, GN7467; cephalosporinase producing strain, 18 to 20 hours; read-out: MIC
Procedure: (§1) A solution of a cephalosporinase producing strain stored by Episome Research Institute, which was prepared by incubating the strain in a sensitivity test broth (STB; product of Nissui K.K.) for 18 hours, was diluted with a fresh STB solution to contain 10^5 cells per milliliter and the diluted solution was then inoculated as spots with a microplanter on a sensitivity disk agar-N (SDA; product of Nissui K.K.) containing a test compound. The disk agar was then incubated for 18 to 20 hours. A minimum inhibitory concentration was determined as a minimum concentration in which the test microorganism had no longer grown after a 18 to 20 hour incubation.

[3] = system: Enterobacter cloacae GN 7471; test: as above; type: cell-based; details: Enterobacter cloacae, GN7471; cephalosporinase producing strain, 18 to 20 hours; read-out: MIC
Procedure: as §1

Proteus vulgaris GN 76 = test: as above; type: cell-based; details: Proteus vulgaris, GN76
Procedure: as §1

[4] = system: Pseudomonas aeruginosa GN 918; test: as above; type: cell-based; details: Pseudomonas aeruginosa, GN918; cephalosporinase producing strain, 18 to 20 hours; read-out: MIC
Procedure: as §1

[5] = system: Pseudomonas cepacia GN 11164; test: as above; type: cell-based; details: Burkholderia cepacia, GN11164
Procedure: as §1

[6] = system: P. aeruginosa resistant strains; test: Sensitivity test against clinical isolates, P. aeruginosa resistant strains; type: cell-based; details: 54 resistant strains
Procedure: It is noted here that the 54 strains have been chosen because there have been the strains in duplicate with the agents. ______________________________________ Ceftazidime (CAZ) (25 to 100 μg/ml) 21 strains Cefsulodine (CFS) (25 to >100 μg/ml) 23 strains Piperacilin (PIPC) (25 to >100 μg/ml) 15 strains Gentamycin (GM) (25 to >100 μg/ml) 21 strains Amikacin (AMK) (25 to >100 μg/ml) 26 strains Ofloxacin (OFLX) (25 to >100 μg/ml) 4 strains ______________________________________
A minimum inhibitory concentration (MIC) was determined in substantially the same manner as the test procedures II above using the 54 strains of P. aeruginosa having an anti-Pseudomonas resistance.

[7] = system: C. freundii resistant strains; test: Sensitivity test against clinical isolates, C. freundii resistant strains; type: cell-based; details: CFIX/CTX resistant strains
Procedure: Cefixime (CFIX) (50 to >100 μg/ml)
Cefotaxime (CTX) (50 to >100 μg/ml)
The tests were carried out in the same manner as described above Test 1.

[8] = system: Swine Kidney Dehydropeptidase-I (DHP-I); test: Hydrolysis activity against DHP-I enzyme substrate by late assay; type: in vitro ADME; details: final substrate concentration 100 μM, 10 minutes, pH 7.1
Procedure: The swine kidney (8 kg) was homogenized and an enzyme protein was allowed to precipitate. After a connective lipid was removed with acetone, the resultant material was made soluble by treatment with butanol and purified in the order by the ammonium sulfate fraction method, thereby producing DPH-I enzyme from a 75% ammonium sulfate fraction.
The DHP-I enzyme was then adjusted to give an enzyme concentration of 25 mg/10 ml (phosphate buffer, pH 7.1), and divided into 1 ml portions. The portions were frozen and stored at -40° C. or less until use.
As control compounds were employed glycyl dehydrophenylalanine (Gl-dh-Ph) and imipenem, and they were adjusted in situ each to give the concentration of 177 μM with the same sodium phosphate buffer solution.
To 1.2 ml of a 50 mM sodium phosphate buffer solution (substrate) containing 177 μM of each of Gh-dh-Ph and imipenem as the control compounds was added 0.2 ml of the DHP-I enzyme solution (25 mg/10 ml) prepared above in the final substrate concentration of 100 μM. The solution was then incubated at […] for 10 minutes. An initial velocity of hydrolysis of the substrate was measured from a decrease in absorbency at a particular λmax of each of the substrates.
A blank test was conducted in substantially the same manner as above by adding 0.2 ml of the sodium phosphate buffer solution (pH 7.1) to 1.2 ml of the above substrate.

[9] = system: Streptococcus pyogenes Cook; test: Antibacterial test, agar plate dilution method; details: Streptococcus pyogenes, 18 h
[10] = system: Micrococcus luteus ATCC9341; test: Antibacterial test, agar plate dilution method; details: Micrococcus luteus, ATCC9341, 18 h
Enterobacter cloacae 963 = test: Antibacterial test, agar plate dilution method; details: Enterobacter cloacae, 963, 18 h
[11] = system: Salmonella typhimurium IID971; test: Antibacterial test, agar plate dilution method; details: Salmonella enterica, 18 h
[12] = system: Salmonella schottmuelleri 8006; test: Antibacterial test, agar plate dilution method; details: Salmonella, 8006, 18 h
[13] = system: Serratia marcescens IAM1184; test: Antibacterial test, agar plate dilution method; details: Serratia marcescens, IAM1184, 18 h
[14] = system: Morganella morganii IFO3848; test: Antibacterial test, agar plate dilution method; details: Morganella morganii, IFO3848, 18 h
[15] = system: Proteus mirabilis IFO3849; test: Antibacterial test, agar plate dilution method; details: Proteus mirabilis, IFO3849, 18 h
Proteus vulgaris OX-19 = test: Antibacterial test, agar plate dilution method; details: Proteus vulgaris, OX19, 18 h
Proteus vulgaris HX-19 = test: Antibacterial test, agar plate dilution method; details: Proteus vulgaris, HX19, 18 h
[16] = system: Pseudomonas aeruginosa IFO 3445; test: Antibacterial test, agar plate dilution method; details: Pseudomonas aeruginosa, IFO3445, 18 h

SMILES	MIC (Salmonella typhi 901) [µg/mL]	MIC [1] [µg/mL]	MIC [9] [µg/mL]	MIC [10] [µg/mL]	MIC (Enterobacter cloacae 963) [µg/mL]	MIC [11] [µg/mL]	MIC [12] [µg/mL]	MIC [13] [µg/mL]	MIC [14] [µg/mL]	MIC [16] [µg/mL]	further results
C[C@@H](O)[C@H]1C(=O)N2C(C(=O)O)=C(SCCN=CN)C[C@H]12 [Imipenem]	0.1 (≈ 0.334 µM)	1.56 (≈ 5.21 µM)	< 0.006	0.025 (≈ 0.0835 µM)	0.2 (≈ 0.668 µM)	0.39 (≈ 1.3 µM)	0.78 (≈ 2.61 µM)	0.39 (≈ 1.3 µM)	0.39 (≈ 1.3 µM)	0.78 (≈ 2.61 µM)	MIC [2]: 0.78 µg/mL (≈ 2.61 µM); MIC [3]: 0.2 µg/mL (≈ 0.668 µM); MIC (Proteus vulgaris GN 76): 3.13 µg/mL (≈ 10.5 µM); MIC [4]: 0.78 µg/mL (≈ 2.61 µM); MIC [5]: 3.13 µg/mL (≈ 10.5 µM); test microorganisms whose growth is inhibited ([6]; concentration of 12.5 μg/ml): all the test microorganism; test microorganisms whose growth is inhibited ([6]; concentration of […]): approximately 98%; test microorganisms whose growth is inhibited ([7]; concentration of 0.78 μg/ml): approximately 90%; test microorganisms whose growth is inhibited ([7]; concentration of 1.56 μg/ml): all the test microorganisms; initial velocity of hydrolysis against DHP-I [8]: 0.56 µM/min; MIC [15]: 6.25 µg/mL (≈ 20.9 µM); MIC (Proteus vulgaris OX-19): 0.78 µg/mL (≈ 2.61 µM); MIC (Proteus vulgaris HX-19): 0.78 µg/mL (≈ 2.61 µM)
Cc1nnc(SCC2=C(C(=O)O)N3C(=O)[C@@H](NC(=O)Cn4cnnn4)[C@H]3SC2)s1 [CEZ]	0.78 (≈ 1.72 µM)	1.56 (≈ 3.43 µM)	0.1 (≈ 0.22 µM)	0.39 (≈ 0.858 µM)	> 100	0.78 (≈ 1.72 µM)	0.78 (≈ 1.72 µM)	> 100	25 (≈ 55 µM)	> 100	MIC ([5]; cephalosporinase producing strain, 18 to 20 hours, read-out: MIC): 0.78 µg/mL (≈ 1.72 µM)

— patent US4990613A, “(1R,5S,6S)-2-[(6,7-dih ydro-5H-pyrazolo[1,2-a][1,2,4]triazolium-6-yl)]thio-6-[R-1-hydroxyethyl]- 1-methyl-carbapenem-3-carboxylate and intermediate therefor” (Lederle (Japan), Ltd., priority 1987, dated 1991)
